Experimental findings from ChEMBL document CHEMBL3862006, “Design and synthesis of peptide-based macrocyclic cyclophilin inhibitors” (Bioorg Med Chem Lett, 2016) are described below.

The target of data set [1] is T1, Peptidyl-prolyl cis-trans isomerase A (Homo sapiens, UniProt P62937). The experiment in a line: Inhibition of fluorescent cyclosporin A binding to human CypA by TR-FRET assay.
The target of data set [2] is T1, Peptidyl-prolyl cis-trans isomerase A. Nature of the data set: Binding affinity to CypA (unknown origin) by fluorescence titration method.
Data set [3] in a line: Apparent permeability across apical to basolateral side in human Caco2 cells. The note with it: Caco-2. The data set is classed as ADME, cell-based.
Data set [4] is described as follows: Intrinsic clearance in human liver microsomes. The data set is classed as ADME. The note with it: read-out: CLH.
Data set [5] is described as follows: Apparent permeability across basolateral to apical side in human Caco2 cells. It is filed as ADME, cell-based. The note with it: Caco-2. On the technique in general: Caco-2 monolayers are a common model of the intestinal barrier.
Data set [6] can be described thus: Aqueous solubility of the compound. The note with it: buffer. The data set is classed as physicochemical.
Data set [7] in a line: Unbound fraction in human plasma. It is filed as ADME, cell-free.
A short description of data set [8]: Distribution coefficient, logD of the compound. It is filed as physicochemical. As to conditions: octanol/water.

Numbered stars: 1 amine (or outer) side, 2 acyl side, 3 side chain; on linkers, the order of the positions; unused ones are H or OH. Peptide text beside a SMILES is read from it. * marks the point of attachment. pNA = O=[N+]([O-])c1ccc(N*)cc1; Suc = O=C(CCC(=O)[*:2])[*:1]

T1 sequence (P62937 whole entry): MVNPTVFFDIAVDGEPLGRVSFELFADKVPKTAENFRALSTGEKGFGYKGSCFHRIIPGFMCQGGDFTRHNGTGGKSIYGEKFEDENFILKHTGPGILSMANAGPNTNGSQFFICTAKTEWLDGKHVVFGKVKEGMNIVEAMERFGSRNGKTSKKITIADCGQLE

`C[C@@]1(NCC2CCCCC2)COCCCCOC[C@@H](C(=O)O)NC(=O)[C@@H]2CCCN2C(=O)CNC1=O` returned a Kd in data set [1] of 32 µM.

In turn, `CCCCCCC(=O)N[C@]1(C)COCCCCOC[C@@H](C(=O)O)NC(=O)[C@@H]2CCCN2C(=O)CNC1=O` came in with a Kd in data set [1] above 600 µM.

In turn, `C[C@@]1(NCC2CCCCCCC2)COCCCCOC[C@@H](C(=O)O)NC(=O)[C@@H]2CCCN2C(=O)CNC1=O` returned an equilibrium dissociation constant (Kd) in data set [1] of 5.4 µM.

For `C[C@@]1(NCCCc2ccccc2)COCCCCOC[C@@H](C(=O)O)NC(=O)[C@@H]2CCCN2C(=O)CNC1=O`, in data set [1], the Kd is above 600 µM.

Regarding `C[C@@]1(NC(=O)C2CCC2)COCCCCOC[C@@H](C(=O)O)NC(=O)[C@@H]2CCCN2C(=O)CNC1=O`, the Kd in data set [1] amounted to 139 µM.

In turn, `C[C@H](NC(=O)CCC(=O)O)C(=O)NCC(=O)N1CCC[C@H]1C(=O)N[C@@H](Cc1ccccc1)C(=O)Nc1ccc([N+](=O)[O-])cc1` (Suc-AGPF-pNA) gave a Kd in data set [2] of 135 µM.

On to `C[C@@]1(N)COCCCCOC[C@@H](C(=O)O)NC(=O)[C@@H]2CCCN2C(=O)CNC1=O`, for which the affinity in data set [1], expressed as Kd, was 127 µM.

Turning to `C[C@@]1(NCC2CCOCC2)COCCCCOC[C@@H](C(=O)O)NC(=O)[C@@H]2CCCN2C(=O)CNC1=O`, the dissociation constant (Kd) in data set [1] was above 600 µM.

For `C[C@@]1(NC(=O)c2cc(Cl)cc(Cl)c2)COCCCCOC[C@@H](C(=O)O)NC(=O)[C@@H]2CCCN2C(=O)CNC1=O`, the Kd in data set [1] is above 600 µM.

As for `C[C@@]1(NCc2ccccc2)COCCCCOC[C@@H](C(=O)O)NC(=O)[C@@H]2CCCN2C(=O)CNC1=O`, in data set [1], the Kd is above 600 µM.

On to `CC(=O)N[C@]1(C)COCCCCOC[C@@H](C(=O)O)NC(=O)[C@@H]2CCCN2C(=O)CNC1=O`, for which the Kd in data set [1] is above 600 µM.

For `C[C@@]1(NCCc2ccccc2)COCCCCOC[C@@H](C(=O)O)NC(=O)[C@@H]2CCCN2C(=O)CNC1=O.Cl`, the Papp A→B in data set [3] stood at 0.1 ×10⁻⁶ cm/s. In data set [1], this molecule registered a dissociation constant Kd of 10.5 µM. Moreover, the microsomal CLint in data set [4] is below 3 µL/min/mg. The Papp B→A in data set [5] was 0.17 ×10⁻⁶ cm/s. The solubility in data set [6] is above 1000 µM. This molecule also had a fraction unbound in data set [7] of 1. In data set [8], this molecule registered a logD of -1.8.

`C[C@@]1(NCC2CCCC2)COCCCCOC[C@@H](C(=O)O)NC(=O)[C@@H]2CCCN2C(=O)CNC1=O` gave a Kd in data set [1] above 600 µM.

By Kd is commonly meant the concentration at which binding is half-saturated. A high value points to weaker binding. As usually defined, the Papp A→B is how fast a substance crosses the layer from the apical side. A word on the Papp B→A: it is how fast a substance crosses the layer from the basolateral side. Usually solubility stands for how much of the substance goes into solution per volume. Read a low solubility as a poorly soluble substance. One may read the fraction unbound as the share of the substance not bound to proteins or other matrix. For orientation: logD means lipophilicity at a set pH, counting ionised and neutral species. A high value points to higher lipophilicity.
